# In article PMC8791944, “GLUT3 inhibitor discovery through in silico ligand screening and in vivo validation in eukaryotic expression systems” (Scientific Reports, 2022):
# “And” between values parts separate entries of the source, which are not always exact repeats. Equal values may be shown once. “Also recorded” adds a separate entry of the source. Read-outs that look alike come from different tables or passages of the source.
# Biological target: T1, GLUT3S66Y (Homo sapiens, UniProt P11169, S66Y)
# T1 construct: expressed in transfected cells; host or cells: Saccharomyces cerevisiae hxt0 strain EBY.S7 (fgy1)
# T1 sequence (P11169 1-496 S66Y): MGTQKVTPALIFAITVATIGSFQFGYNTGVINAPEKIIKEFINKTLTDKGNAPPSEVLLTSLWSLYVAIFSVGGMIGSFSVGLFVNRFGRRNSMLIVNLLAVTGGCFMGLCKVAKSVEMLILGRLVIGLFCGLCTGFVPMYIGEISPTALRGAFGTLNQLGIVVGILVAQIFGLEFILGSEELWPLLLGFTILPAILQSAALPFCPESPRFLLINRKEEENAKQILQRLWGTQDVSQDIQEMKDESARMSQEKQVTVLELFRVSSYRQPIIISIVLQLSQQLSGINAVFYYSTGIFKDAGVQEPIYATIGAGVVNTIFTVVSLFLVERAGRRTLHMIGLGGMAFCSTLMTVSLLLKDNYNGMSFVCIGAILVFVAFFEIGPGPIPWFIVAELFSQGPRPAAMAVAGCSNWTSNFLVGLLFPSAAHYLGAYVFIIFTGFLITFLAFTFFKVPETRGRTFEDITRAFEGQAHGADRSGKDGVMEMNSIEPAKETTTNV
# Test: Glucose transport assay, GLUT3S66Y expressed in hxt^0 yeast cells EBY.S7
# Assay type: cell-based
# Conditions: for Inhibition mode in GLUT3: Dixon plots, versus glucose; for Ki: Ki for GLUT3 inhibition (Dixon plot), Dixon plots with GLUT3S66Y at 0.75, 1.50 and 3.00 mM glucose, competitive with glucose
# Description: We determined GLUT3 transport activity by measuring the accumulation of radioactive glucose inside whole hxt^0 yeast cells (see “Materials and methods” for details). To select an appropriate substrate concentration for transport inhibition screening, we assessed the KM of glucose for GLUT3 in hxt^0 cells. […] Indeed, functional expression of human GLUTs in hxt^0 cells often requires mutations in genes related to yeast lipid composition[65],[73] as well as single-site mutations that may favor the outward-facing conformation of the transporters[65]–[67].
# The plasmids containing functional constructs of GLUT1-5 were transformed in the corresponding hxt^0 strains[65],[66],[73] (EBY.VW4000 for GLUT5S72Y, EBY.S7 for GLUT1, GLUT2∆loopS_Q455R, GLUT3 and GLUT3S66Y, and SDY.022 for GLUT4) and grown on 2% (w/v) agar plates of the respective media supplemented with 1% (w/v) maltose. An initial culture of ~ 10 ml was started with a few colonies and grown for 2–3 days if the media was SC-uracil with 1% (w/v) maltose (GLUT1, GLUT3, GLUT4) or 1–2 days if the media was YEP with 1% (w/v) maltose and 100 µg/ml geneticin G418 (GLUT2∆loopS_Q455R and GLUT5S72Y). Cells were washed once in the corresponding media in which maltose was substituted with 0.1–2% hexose substrate for the expressing GLUT (i.e., SC-uracil, 2% (w/v) glucose for GLUT1; SC-uracil, 0.2% (w/v/) glucose for GLUT3 and GLUT4; YEP, 0.2% (w/v) glucose, 100 µg/ml geneticin G418 for GLUT2∆loopS_Q455R, and YEP, 2% (w/v) fructose for GLUT5 S72Y). Then, cells were transferred in the same media so that OD600nm ~ 0.5 and grown further for 1–2 days.
# For transport activity assay, cells in the hexose media were centrifuged (1000×g, 5 min, room temperature), washed once with PBS buffer (10 mM Na2HPO4, 1.8 mM KH2PO4, 2.7 mM KCl, 137 mM NaCl, pH 7.4), and resuspended in PBS buffer at an OD600nm ~ 10; each assay contained 100 µl of this cell solution. Transport activity assay was started by adding C^14-hexose at a substrate concentration corresponding to the respective KM (5 mM glucose for GLUT1 or GLUT4, 3 mM glucose for GLUT3 or 1.5 mM glucose for GLUT3S66Y, 15 mM glucose for GLUT2∆loopS_Q455R, and 10 mM fructose for GLUT5S72Y); for determining the glucose KM in GLUT3 and GLUT3S66Y, substrate concentrations were varied accordingly. […] The filtration membranes were transferred into scintillation vials with 10 ml of Scintillation Solution (BioSafeII; Research Products International, Mount Prospect, IL, USA), and vortexed briefly. The radioactivity was determined with a scintillation counter (Tri-carb 2900TR, Perkin Elmer, USA). As all compounds were solubilized in dimethyl sulfoxide (DMSO), controls for determining the relative transport activity included 1% (v/v) DMSO to represent DMSO used as vehicle control (i.e., 100% activity), and known inhibitors at saturating concentrations, 200 µM phloretin for GLUT1-4[69],[82], and 100 µM N-[4-(methylsulfonyl)-2-nitrophenyl]-1,3-benzodioxol-5-amine (MSNBA) for GLUT5 (i.e., complete inhibition). […] Data were analyzed with GraphPad Prism (San Diego, CA, USA).
# Supplementary Figure S3. Dose response curves for G3iA-G3iF inhibition of GLUT3S66Y. […] Error bars represent standard deviations from at least three independent measurements. Graphs, data analysis, and IC50 values were generated with GraphPad (www.graphpad.com).
# Inhibition mode of G3iA, G3iC, and G3iE in GLUT3. (A-C) Dixon plots^2 for GLUT3S66Y inhibition by G3iA, G3iC, and G3iE, respectively.
SMILES,IC50 [µM],Inhibition mode in GLUT3,Inhibition mode in GLUT3 (listed as G2iA),Ki,IC50 (read-out: IC50 for GLUT3S66Y transport inhibition) [µM]
"CC(=O)Nc1ccc(S(=O)(=O)Nc2ccc(Nc3cc(N(C)C)nc(C)n3)cc2)cc1 [G3iA, N-(4-{[(4-{[6-(dimethylamino)-2-methylpyrimidin-4-yl]amino}phenyl)amino]sulfonyl}phenyl)acetamide]",6.21 ± 0.95,competitive inhibition with glucose,competitive inhibition mode,3.49 µM and ~3.5 µM,
"COc1ccccc1-n1c(/C=C/c2ccc(O)cc2)nc2ccc(Br)cc2c1=O [G3iB, 6-bromo-2-[(E)-2-(4-hydroxyphenyl)ethenyl]-3-(2-methoxyphenyl)quinazolin-4(3H)-one]",,,,,9.62 ± 1.17
Cc1cccnc1OC1CCN(c2cc(N3CCCC3CO)ncn2)CC1 (stereo not shown) [G3iC],10.1 ± 2.1,competitive inhibition with glucose; also recorded: competitive inhibition mode,,5.83 ± 0.3 µM,
Cc1cc(NC(=O)CCC2Cc3ccccc3NC2=O)nc(-c2ccccc2)n1 (stereo not shown) [G3iD],12.6 ± 1.6,,,,
"O=C(Nc1cccc(Cl)c1)c1cccc(NC(=O)c2cccc([N+](=O)[O-])c2)c1 [G3iE, N-{3-[(3-chloroanilino)carbonyl]phenyl}-3-nitrobenzamide]",20.6 ± 2.4,competitive inhibition with glucose; also recorded: competition with glucose; also recorded: competitive inhibition mode,,12.3 ± 0.9 µM,
Cc1ccccc1CN(Cc1nnc(C(C)(C)C)o1)c1ccc2nc(O)[nH]c2c1 [G3iF],24.8 ± 6,,,,
